According to patent publication US12522596B2, “Compounds as GLP-1R agonists” (Terns Pharmaceuticals, Inc., priority 2021, dated 2026):

What was measured:
Type in all cases: in vitro ADME
[1] = Metabolic stability in rat hepatocytes; conditions: cryopreserved hepatocytes, 1 μM
Experimental: (§1) Test compounds were incubated in rat and human hepatocytes and stability was assessed from the substrate […] approach. Test compounds were dissolved in dimethyl sulfoxide (DMSO) to create a 10 mM Stock, and then further diluted to create a 1000× Working Stock of 1 mM with DMSO in 96-well plates for test compounds and the positive control (midazolam). Vials containing cryopreserved hepatocytes were removed from the liquid nitrogen tank and immediately immersed in a 37° C. water bath. The vials were shaken gently until the contents had thawed and were then immediately emptied into 48 mL of pre-warmed HT Medium in a 50 mL conical tube. Cells remaining in the vial were resuspended with 1.0 mL of pre-warmed HT Medium and added to the conical tube. The tube was capped and then gently inverted several times to resuspend the hepatocytes. The cell suspension was centrifuged at 50×g at room temperature for 5 minutes and the supernatant discarded. The cell pellet was loosened by gently swirling the centrifuge tube and was re-suspended in 4 mL of warm Dulbecco's Modified Eagle medium (DMEM). Cell density was determined by a cell counter by Nexcelom, and DMEM medium was added to obtain a target density of 1×10^6 cells/mL. The assay was carried out in 96-well microtiter plates. Test Compounds were incubated at 1 μM with 1×10^6 cells/mL hepatocytes in DMEM for 0, 30, 60, 120 and 240 minutes. The incubation was carried out with gentle shaking at 37° C. under a humid atmosphere of 95% air/5% CO2. The volume of the incubation mixture was 37 μL with a final 0.1% DMSO. At each of the time points, the incubation was stopped by adding 150 μL quenching solution (100% acetonitrile, 0.1% formic acid containing bucetin as an internal standard for positive ESI mode). Subsequently, the mixtures were vortexed for 20 min and centrifuged at 4,000 RPM at 10° C. The supernatant (80 μL) was transferred to a clean 96-well plate and analyzed by LC-MS/MS. Midazolam at 1 μM with a final 0.1% DMSO was included as a positive control to verify assay performance. The percent parent remaining, intrinsic and predicted hepatic clearance and t1/2 were calculated. All samples were analyzed by LC-MS/MS using an AB Sciex API 4000 instrument, coupled to a Shimadzu LC-20AD LC Pump system. Separation was achieved using a Waters Atlantis T3 dC18 reverse phase HPLC column (20 mm×2.1 mm) at a flow rate of 0.5 mL/min. The mobile phase consisted of 0.1% formic acid in water (solvent A) and 0.1% formic acid in 100% acetonitrile (solvent B). Elution conditions are detailed below.
(§2) The ion optics of each test compound were optimized for their declustering potential (DP), […] (CE), collision-cell exit potential (CXP) and used in a selected ion monitoring experiment in the positive ion mode. The peak area ratio of each test compound to internal standard was then evaluated for stability. The extent of metabolism was calculated based on the disappearance of the test compound, compared to its initial concentration. The initial rates of clearance of the test compound were calculated using the linear regression plot of semi-log % remaining of the compound versus time. The elimination rate constant (k) of the linear regression plot was then used to determine t1/2 and the intrinsic clearance (CLint) using the following formula, where Chepatocyte (million cells/mL) is the cell density of the incubation:
(§3) The predicted hepatic clearance (CLhep) was calculated using the well stirred method with the following formula with CLint(in vivo) normalized based on liver weight: […]
(§4) The relevant physiological parameters of liver weight, blood flow, and hepatocellularity for various species are listed below: […]

[2] = Metabolic stability in human hepatocytes; conditions: cryopreserved hepatocytes; human hepatocytes, 1 μM
Experimental: as §1, §2, §3, §4

[3] = Caco-2 passive permeability and efflux ratio; conditions: human; for efflux ratio at 120 min, 5 μM: pH 7.4, Caco-2, Papp (B-to-A)/Papp (A-to-B), read-out: Efflux Ratio (ER); for Papp at 120 min, 5 μM: Caco-2, 5 μM, pH 7.4, 120 minutes
Experimental: Caco-2 cells (clone C2BBe1) were obtained from American Type Culture Collection (Manassas, VA). Cell monolayers were grown to confluence on collagen-coated, microporous membranes in 12-well assay plates. Details of the plates and their certification are shown below. The permeability assay buffer was Hanks' balanced salt solution containing 10 mM HEPES and 15 mM glucose at a pH of 7.4. The buffer in the receiver chamber also contained 1% bovine serum albumin. The dosing solution concentration was 5 μM of test article in the assay buffer. Cell monolayers were dosed on the apical side (A-to-B) or basolateral side (B-to-A) and incubated at 37° C. with 5% CO2 in a humidified incubator. Samples were taken from the donor and receiver chambers at 120 minutes. Each determination was performed in duplicate. The flux of lucifer yellow was also measured post-experimentally for each monolayer to ensure no damage was inflicted to the cell monolayers during the flux period. All samples were assayed by LC-MS/MS using electrospray ionization. The apparent permeability (Papp) and percent recovery were calculated as follows:
[formula] [formula] where, dCr/dt is the slope of the cumulative receiver concentration versus time in μM s^−1; Vr is the volume of the receiver compartment in cm^3; Vd is the volume of the donor compartment in cm^3; A is the area of the insert (1.13 cm^2 for 12-well); CA is the average of the nominal dosing concentration and the measured 120-minute donor concentration in μM; CN is the nominal concentration of the dosing solution in μM; Cr^final is the cumulative receiver concentration in μM at the end of the incubation period; Cd^final is the concentration of the donor in μM at the end of the incubation period. Efflux ratio (ER) is defined as Papp (B-to-A)/Papp (A-to-B).

| Structure (SMILES) | CLint scaled at 1 μM [1] | half-life at 1 μM [1] | CLint scaled at 1 μM [2] | half-life at 1 μM [2] | efflux ratio at 120 min, 5 μM [3] | Papp at 120 min, 5 μM [3] |
| --- | --- | --- | --- | --- | --- | --- |
| N#Cc1ccc(COc2cccc(C3CCN(Cc4nc5ccc(C(=O)O)cc5n4Cc4cncs4)CC3)n2)c(F)c1 [Compound 2] | 42.6 ± 2.46 mL/min/kg | 1.32 ± 0.083 h | 15.5 ± 0.82 mL/min/kg | 2.61 ± 0.154 h | 1.66 | 31.5 ×10⁻⁶ cm/s |
| Cc1ncsc1Cn1c(CN2CCC(c3cccc(OCc4ccc(C#N)cc4F)n3)CC2)nc2ccc(C(=O)O)cc21 [Compound 4] | 36 ± 1.36 mL/min/kg | 1.62 ± 0.0477 h | 24.3 ± 0.74 mL/min/kg | 1.66 ± 0.0508 h | 0.975 | 49.9 ×10⁻⁶ cm/s |
| N#Cc1ccc(COc2ccnc(C3CCN(Cc4nc5ccc(C(=O)O)cc5n4Cc4cncs4)CC3)n2)c(F)c1 [Compound 20] | 38.9 ± 1.14 mL/min/kg | 1.49 ± 0.044 h | 10.6 ± 0.66 mL/min/kg | 3.82 ± 0.241 h | 9.77 | 2.82 ×10⁻⁶ cm/s |
| N#Cc1ccc(COc2cccc(C3CCN(Cc4nc5ccc(C(=O)O)cc5n4C[C@@H]4CCO4)CC3)n2)c(F)c1 [Reference Compound A, reference compound] | 48.2 ± 1.33 mL/min/kg | 1.21 ± 0.0425 h | 7.18 ± 0.45 mL/min/kg | 5.79 ± 0.379 h |  | 15.5 ×10⁻⁶ cm/s |

Second part, the molecule after the results:

| CLint scaled at 1 μM [1] | half-life at 1 μM [1] | CLint scaled at 1 μM [2] | half-life at 1 μM [2] | efflux ratio at 120 min, 5 μM [3] | Papp at 120 min, 5 μM [3] | Structure (SMILES) |
| --- | --- | --- | --- | --- | --- | --- |
| 32.5 ± 0.73 mL/min/kg | 1.71 ± 0.0383 h | 7.18 ± 0.31 mL/min/kg | 5.58 ± 0.244 h | 2.14 | 9.41 ×10⁻⁶ cm/s | N#Cc1ccc(COc2cccc(N3CCN(Cc4nc5ccc(C(=O)O)cc5n4Cc4cncs4)CC3)n2)c(F)c1 [Compound 30] |
| 30.2 ± 1.5 mL/min/kg | 1.83 ± 0.0907 h | 17.5 ± 1.33 mL/min/kg | 2.29 ± 0.174 h | 1.31 | 16.8 ×10⁻⁶ cm/s | CC1(c2ccc(C#N)cc2F)Oc2cccc(C3CCN(Cc4nc5ccc(C(=O)O)cc5n4Cc4cncs4)CC3)c2O1 (centres unmarked) [Compound 31] |
